{"source": "patent US20240287614A1", "about": "“RECIPROCAL MICRORNA-MRNA PAIRINGS AS BIOMARKERS AND THERAPEUTIC TARGETS IN CANCER” (UNIVERSITY OF MARYLAND, EASTERN SHORE, priority 2023, published 2024)", "key": {"mTOR and pmTOR [1]": {"tested_on": "mTOR and pmTOR", "assay": "Immunofluorescence of mTOR and pmTOR in prostate cancer cell lines transfected with NS or miR-99b-5p mimic", "assay_type": "cell-based, human", "conditions": "vs NS", "from_the_text": "(§1) The human cell lines used in the study included: 22Rv1, LNCaP, PC-3, RC77 T/E and MDA PCa 2b (prostate cancer cell lines), MDA MB 231 and MCF-7 (breast cancer cell lines), HT-29 and SW620 (colon cancer cell lines), A549 and H1299 (lung cancer cell lines). RWPE-1, HMEC, FHC, and BEAS-2B were used as normal control cell lines for prostate, breast, colon, and lung, respectively. Note that 22Rv1 is a castration-resistant […] prostate cancer cell line, while LNCaP and PC-3 were derived from lymph node and bone metastasis of […] prostate cancer patients, respectively. RC77 T/E was derived from a primary prostate cancer patient, and MDA PCa 2b was derived from bone metastasis of an prostate cancer patient. The cell lines described were used as in vitro cell models to evaluate the functional roles of miR-99b-5p/MTOR pairing in the […] prostate cancer, African American prostate cancer and solid tumors in general. The cells were grown in specific cell culture media described as follows: 22Rv1, LNCaP, MCF-7 and H1299 were cultured in RPMI-1640 with 10% fetal bovine serum (FBS), PC-3, A549 and FHC were cultured in DMEM with 10% FBS, RC77 T/E was cultured in Keratinocyte SFM with human recombinant epidermal growth factor (EGF) and bovine pituitary extract (BPE), MDA PCa 2b were cultured in BRFF-HPC1 with 20% FBS, HT-29 was cultured in McCory's with 10% FBS, SW620 and MDA MB 231 were cultured in L-15 with 10% FBS, HMEC was cultured in mammary epithelial cell basal medium with supplements, and BEAS-2B was cultured in BEBM base medium with BEBM supplement kit. Cells were maintained at 37° C. in a 5% CO2 incubator.\n(§2) The 22Rv1, LNCaP, PC-3, MDA PCa 2b, MCF7, H1299, A549, HT-29, SW620, MDA MB-231, HMEC and BEAS-2B cells were seeded at a density of 3×10^5 cells/well in 6-well plates. RC77 T/E cells were seeded at a density of 5×10^5 cells/well in 6-well plates. The cells were grown for 24 h and then transfected with nonsense/scrambled RNA (NS) and miR-99b-5p mimic (Ambion) using DharmaFECT4 transfection reagent (Dharmacon). After 24 h, fresh media were applied to replace the transfection reagent-containing media, then the cells were incubated for an additional 24 h.\nIn this process, 4×10^4 cells were seeded on cover slip and allowed to adhere for 24 h in 5% CO2 incubator at 37° C. All the cells were subjected to immunofluorescence assays 48 h following transfection. Briefly, cells were washed with 1×PBS, fixed in 4% paraformaldehyde, and permeabilized with 0.1% Triton X-100. Cells were then blocked for 1 h with 2% BSA in 1×PBS. […] All labeled and/or prepared cells mounted on glass slides and were visualized by fluorescence microscopy (Olympus). […]"}, "mTOR and pmTOR [2]": {"tested_on": "mTOR and pmTOR", "assay": "Western blot of mTOR and pmTOR in cytoplasmic and nuclear fractions of prostate cancer cell lines", "assay_type": "cell-based, human", "from_the_text": "as §1, §2\nThe total proteins were extracted using M-PER extraction reagent with protease and phosphatase inhibitor cocktail (Thermo Fisher Scientific) according to manufacturer's protocol. Cytoplasm and nuclear proteins were extracted using Subcellular Protein Fractionation kit (Thermo Fisher Scientific) according to the manufacturer's protocol. Equal amounts of proteins were used based on the quantification using BCA assay kit (Thermo Fisher Scientific), and the samples were separated by electrophoresis using NuPAGE 4-12% or 8% Bis-Tris gels (Invitrogen). The gels were transferred to PVDF membranes (Bio-Rad) then the PVDF membranes were incubated with SuperBlock blocking buffer (Thermo Fisher Scientific). After 1 h, the PVDF membranes were incubated with primary antibodies overnight at 4° C., washed 3 times with 1×TBST, and then incubated with secondary antibody for 1 h at room temperature, then washed 5 times with 1×TBST. The results were analyzed with SuperSignal ECL substrates (Thermo Fisher Scientific) and a ChemiDoc XRS system (Bio-Rad). The primary and secondary antibodies used in the study were mTOR, pmTOR, AR, GAPDH, Lamin B1, β-actin, and anti-rabbit IgG-HRP antibodies from Cell Signaling Technology."}, "[3]": {"conditions": "22Rv1, LNCaP, PC-3, RC77 T/E, MDA PCa 2b, 48 h following transfection"}, "[4]": {"conditions": "all European American and African American prostate cancer cell lines"}, "[5]": {"conditions": "all European American and African American prostate cancer cell lines, 48 h transfection, vs NS"}, "[6]": {"conditions": "metastatic prostate cancer cell line MDA PCa 2b"}}}
{"substance": "miR-99b-5p mimic: miRNA mimic of miR-99b-5p (SEQ ID NO: 2, CACCCGUAGAACCGACCUUGCG), purchased from Ambion (listed as RNA, chemistry not given here; listed as Homo sapiens)", "values": [{"measurement": "pmTOR signals (immunofluorescence)", "setting": "mTOR and pmTOR [1]; [3]", "result": "generalized reduction"}, {"measurement": "total mTOR signals (immunofluorescence)", "setting": "mTOR and pmTOR [1]; [3]", "result": "generalized reduction"}, {"measurement": "cytoplasmic pmTOR signals (immunofluorescence quantification)", "setting": "mTOR and pmTOR [1]; [4]", "result": "increased"}, {"measurement": "nuclear pmTOR signals (immunofluorescence quantification)", "setting": "mTOR and pmTOR [1]; [4]", "result": "reduced significantly"}, {"measurement": "mTOR in nuclear fractions (Western blot)", "setting": "mTOR and pmTOR [2]; [5]", "result": "moderate to significant reduction"}, {"measurement": "pmTOR in nuclear fractions (Western blot)", "setting": "mTOR and pmTOR [2]; [5]", "result": "moderate to significant reduction"}, {"measurement": "cytoplasmic mTOR (Western blot)", "setting": "mTOR and pmTOR [2]; all the prostate cancer cell lines, vs NS", "result": "slight to no reduction"}, {"measurement": "nuclear mTOR (Western blot)", "setting": "mTOR and pmTOR [2]; [6]", "result": "significant decrease"}, {"measurement": "nuclear pmTOR (Western blot)", "setting": "mTOR and pmTOR [2]; [6]", "result": "significant decrease"}]}
